The series can be described thus: Saturated concentration (solubility) of crystalline powder compound in inorganic salt aqueous solution. The settings on record: for Saturating concentration: 25 degrees Celsius; for Saturated concentration: 25° C., aqueous solution containing only 15 wt % of sodium chloride and 10 wt % of ammonium chloride. The format is physicochemical. Here is the method:
The latent heat cold storage material of the present disclosure contains a crystalline powder as a supercooling inhibitor. The crystalline powder is formed of a compound having low solubility in an aqueous solution of an inorganic salt (hereinafter, also referred to as a low-solubility compound).
In the present disclosure, the “solubility” refers to a limit of an amount at which a solute is dissolved in a certain amount of a solvent. The solubility is represented by a mass (g) of the solute which is dissolved in 100 g of the solvent at a certain temperature. […] In the present disclosure, the “saturated concentration” refers to a concentration of an aqueous solution in which a solute is dissolved up to the solubility. When the limit of an amount at which a solute is dissolved in 100 g of a solvent is 20 g, the solubility is 20 g, and the saturated concentration of the solute is 16.7 wt %.

Molecules are shown by their SMILES.

As for `CCNC(=O)NCC` [1,3-diethylurea], the Saturated concentration is recorded as 3.0 wt %. Besides, the Saturating concentration (aqueous solution containing 10 wt % of potassium chloride and 10 wt % of ammonium chloride) came to 7.0 wt %. In addition, under “aqueous solution containing 12.5 wt % of potassium chloride and 12.5 wt % of ammonium chloride”, the Saturating concentration entry is listed as “less than 7.0 wt %”. In addition, the “Solubility in the inorganic salt aqueous solution” value (normal temperature, inorganic salt concentration 10 to 30 wt %) is listed as not above 10 wt %.
With `O=C(NC1CCCCC1)NC1CCCCC1` [1,3-dicyclohexylurea], the Saturated concentration result is recorded as “less than 7.0 wt %”.
Still for that read-out and setting: next, `CCCCNC(=O)NCCCC` [1,3-dibutylurea]: “less than 0.08 wt %”.

(Values after patent publication US9845420B2, “Latent heat cold storage material” (Panasonic Intellectual Property Management Co., Ltd., priority 2015, dated 2017).)
